According to ChEMBL document CHEMBL1833863, “Synthesis, biological evaluation and molecular docking studies of 1,3,4-thiadiazole derivatives containing 1,4-benzodioxan as potential antitumor agents” (Bioorg Med Chem Lett, 2011):
In brackets after ≈: the same amount, converted by molar mass. Activity calls are given as the source filed them. The rule behind the calls is not given here.

Tests used:
HepG2 [1] = assay: Antiproliferative activity against human HepG2 cells after 48 hrs by MTT assay; type: functional, cell-based; settings: HepG2, 48 h
BGC-823 = assay: Antiproliferative activity against human BGC823 cells after 48 hrs by MTT assay; type: functional, cell-based; settings: BGC-823, 48 h
[2] = Antiproliferative activity against human SW1116 cells after 48 hrs by MTT assay; type: functional, cell-based; settings: SW 1116, 48 h
HeLa = assay: Antiproliferative activity against human HeLa cells after 48 hrs by MTT assay; type: functional, cell-based
Focal adhesion kinase 1 [3] = molecular target: T1, Focal adhesion kinase 1 (Homo sapiens, UniProt Q05397); assay: Inhibition of human recombinant full-length FAK assessed as remaining ATP after 4 hrs by Kinase-Glo-luminescence assay
Target sequence in this assay (Q05397 whole entry): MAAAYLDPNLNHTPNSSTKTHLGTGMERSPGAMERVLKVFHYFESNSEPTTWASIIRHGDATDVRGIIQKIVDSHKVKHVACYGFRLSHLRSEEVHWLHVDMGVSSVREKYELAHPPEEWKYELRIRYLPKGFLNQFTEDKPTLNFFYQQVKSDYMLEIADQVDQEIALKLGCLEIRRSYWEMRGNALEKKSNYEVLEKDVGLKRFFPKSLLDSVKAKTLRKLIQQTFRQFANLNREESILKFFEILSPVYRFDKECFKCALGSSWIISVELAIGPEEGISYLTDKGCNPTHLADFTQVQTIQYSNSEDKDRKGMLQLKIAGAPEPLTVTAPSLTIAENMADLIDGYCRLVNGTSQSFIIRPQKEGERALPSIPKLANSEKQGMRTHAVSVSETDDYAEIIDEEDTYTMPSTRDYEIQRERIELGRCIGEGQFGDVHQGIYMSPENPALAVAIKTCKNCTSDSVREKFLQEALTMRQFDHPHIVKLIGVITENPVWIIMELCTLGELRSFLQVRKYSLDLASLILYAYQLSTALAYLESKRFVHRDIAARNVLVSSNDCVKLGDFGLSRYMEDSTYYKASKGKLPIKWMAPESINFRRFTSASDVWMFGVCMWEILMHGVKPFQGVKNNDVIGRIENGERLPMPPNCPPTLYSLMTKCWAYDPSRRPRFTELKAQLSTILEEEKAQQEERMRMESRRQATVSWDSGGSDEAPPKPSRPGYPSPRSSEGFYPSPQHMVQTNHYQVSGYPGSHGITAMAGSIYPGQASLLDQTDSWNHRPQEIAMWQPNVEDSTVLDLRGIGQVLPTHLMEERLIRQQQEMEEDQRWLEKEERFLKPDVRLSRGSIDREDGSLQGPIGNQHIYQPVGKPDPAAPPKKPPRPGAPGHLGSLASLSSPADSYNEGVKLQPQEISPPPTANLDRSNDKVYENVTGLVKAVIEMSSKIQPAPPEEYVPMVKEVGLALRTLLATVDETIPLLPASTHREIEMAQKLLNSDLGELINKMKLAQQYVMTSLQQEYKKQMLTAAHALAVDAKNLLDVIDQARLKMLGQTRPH

Focal adhesion kinase 1 [4] = molecular target: T1, Focal adhesion kinase 1; assay: Inhibition of FAK in human HepG2 cells at 2.22 to 20 uM by Western blot analysis; type: cell-based
Target sequence in this assay (Q05397 2-1052 limits assumed): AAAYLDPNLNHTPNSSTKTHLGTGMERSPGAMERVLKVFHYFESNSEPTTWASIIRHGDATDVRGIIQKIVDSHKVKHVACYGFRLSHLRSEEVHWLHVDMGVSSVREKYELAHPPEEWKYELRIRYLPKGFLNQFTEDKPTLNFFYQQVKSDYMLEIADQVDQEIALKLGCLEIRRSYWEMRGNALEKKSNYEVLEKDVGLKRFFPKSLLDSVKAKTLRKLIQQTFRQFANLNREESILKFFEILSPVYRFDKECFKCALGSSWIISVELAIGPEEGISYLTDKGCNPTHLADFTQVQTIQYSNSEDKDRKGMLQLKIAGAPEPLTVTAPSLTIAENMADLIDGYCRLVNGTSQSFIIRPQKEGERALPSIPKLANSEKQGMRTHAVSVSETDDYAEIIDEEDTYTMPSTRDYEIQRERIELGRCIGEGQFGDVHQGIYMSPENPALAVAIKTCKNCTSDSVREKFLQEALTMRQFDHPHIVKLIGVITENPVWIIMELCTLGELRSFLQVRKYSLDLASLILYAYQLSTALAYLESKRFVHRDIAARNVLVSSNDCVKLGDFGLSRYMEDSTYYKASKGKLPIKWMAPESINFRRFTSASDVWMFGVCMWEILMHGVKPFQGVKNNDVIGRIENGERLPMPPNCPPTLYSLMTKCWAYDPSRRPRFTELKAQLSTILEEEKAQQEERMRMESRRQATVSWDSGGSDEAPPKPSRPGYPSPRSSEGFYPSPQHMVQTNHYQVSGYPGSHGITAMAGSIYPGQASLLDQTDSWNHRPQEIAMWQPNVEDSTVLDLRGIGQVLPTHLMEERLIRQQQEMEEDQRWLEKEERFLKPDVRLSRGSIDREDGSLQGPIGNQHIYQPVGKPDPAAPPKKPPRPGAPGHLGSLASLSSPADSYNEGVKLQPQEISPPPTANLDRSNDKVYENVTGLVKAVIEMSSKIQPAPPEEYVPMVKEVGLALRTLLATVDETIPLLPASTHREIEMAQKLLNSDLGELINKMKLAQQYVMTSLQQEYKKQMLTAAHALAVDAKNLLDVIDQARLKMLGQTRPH

HepG2 [5] = assay: Induction of apoptosis in human HepG2 cells assessed as early apoptotic cells at 4 uM after 24 hrs using Annexin V-FITC and propidium iodide staining by flow cytometry (reference value: 0.02 %); type: functional
HepG2 [6] = assay: Induction of apoptosis in human HepG2 cells assessed as cleaved PARP level at 0.74 to 20 […] uM by Western blotting; type: functional, cell-based
HepG2 [7] = assay: Induction of apoptosis in human HepG2 cells assessed as necrotic cells at 2 uM after 24 hrs using Annexin V-FITC and propidium iodide staining by flow cytometry (reference value: 2.82 %); type: functional
HepG2 [8] = assay: Induction of apoptosis in human HepG2 cells assessed as necrotic cells at 0.5 uM after 24 hrs using Annexin V-FITC and propidium iodide staining by flow cytometry (reference value: 2.82 %); type: functional
HepG2 [9] = assay: Induction of apoptosis in human HepG2 cells assessed as late apoptotic cells at 4 uM after 24 hrs using Annexin V-FITC and propidium iodide staining by flow cytometry (reference value: 0.90 %); type: functional
HepG2 [10] = assay: Induction of apoptosis in human HepG2 cells assessed as late apoptotic cells at 1 uM after 24 hrs using Annexin V-FITC and propidium iodide staining by flow cytometry (reference value: 0.90 %); type: functional
HepG2 [11] = assay: Induction of apoptosis in human HepG2 cells assessed as early apoptotic cells at 0.5 uM after 24 hrs using Annexin V-FITC and propidium iodide staining by flow cytometry (reference value: 0.02 %); type: functional
HepG2 [12] = assay: Induction of apoptosis in human HepG2 cells assessed as viable cells at 2 uM after 24 hrs using Annexin V-FITC and propidium iodide staining by flow cytometry (reference value: 96.26 %); type: functional; settings: HepG2, 24 h, read-out: Activity
HepG2 [13] = assay: Induction of apoptosis in human HepG2 cells assessed as late apoptotic cells at 0.5 uM after 24 hrs using Annexin V-FITC and propidium iodide staining by flow cytometry (reference value: 0.90 %); type: functional
HepG2 [14] = assay: Induction of apoptosis in human HepG2 cells assessed as viable cells at 4 uM after 24 hrs using Annexin V-FITC and propidium iodide staining by flow cytometry (reference value: 96.26 %); type: functional; settings: HepG2, 24 h, read-out: Activity
HepG2 [15] = assay: Induction of apoptosis in human HepG2 cells assessed as late apoptotic cells at 2 uM after 24 hrs using Annexin V-FITC and propidium iodide staining by flow cytometry (reference value: 0.90 %); type: functional
HepG2 [16] = assay: Induction of apoptosis in human HepG2 cells assessed as necrotic cells at 1 uM after 24 hrs using Annexin V-FITC and propidium iodide staining by flow cytometry (reference value: 2.82 %); type: functional
HepG2 [17] = assay: Induction of apoptosis in human HepG2 cells assessed as early apoptotic cells at 2 uM after 24 hrs using Annexin V-FITC and propidium iodide staining by flow cytometry (reference value: 0.02 %); type: functional
HepG2 [18] = assay: Induction of apoptosis in human HepG2 cells assessed as cleaved caspase 3 level at 0.74 to 20 […] uM by Western blotting; type: functional, cell-based
HepG2 [19] = assay: Induction of apoptosis in human HepG2 cells assessed as viable cells at 0.5 uM after 24 hrs using Annexin V-FITC and propidium iodide staining by flow cytometry (reference value: 96.26 %); type: functional; settings: HepG2, 24 h, read-out: Activity
HepG2 [20] = assay: Induction of apoptosis in human HepG2 cells assessed as early apoptotic cells at 1 uM after 24 hrs using Annexin V-FITC and propidium iodide staining by flow cytometry (reference value: 0.02 %); type: functional
HepG2 [21] = assay: Induction of apoptosis in human HepG2 cells assessed as necrotic cells at 4 uM after 24 hrs using Annexin V-FITC and propidium iodide staining by flow cytometry (reference value: 2.82 %); type: functional
HepG2 [22] = assay: Induction of apoptosis in human HepG2 cells assessed as viable cells at 1 uM after 24 hrs using Annexin V-FITC and propidium iodide staining by flow cytometry (reference value: 96.26 %); type: functional; settings: HepG2, 24 h, read-out: Activity

SMILES	EC50 (HepG2 [1]) [µg/mL]	EC50 (BGC-823) [µg/mL]	EC50 [2] [µg/mL]	EC50 (HeLa) [µg/mL]	EC50 (Focal adhesion kinase 1 [3]) [µM]	other results
O=C(Nc1nnc(-c2ccc3c(c2)OCCO3)s1)c1ccc(Cl)nc1	15.3 (≈ 41 µM)	> 100	30.3 (≈ 81 µM)	> 100	36.5	
O=C(Nc1nnc(-c2ccc3c(c2)OCCO3)s1)c1ccncc1	> 100	41 (≈ 121 µM)	> 100	> 100		
Cc1ccc(C(=O)Nc2nnc(-c3ccc4c(c3)OCCO4)s2)cn1	> 100	> 100	> 100	> 100		
CC(=O)c1ccc(CC(=O)Nc2nnc(-c3ccc4c(c3)OCCO4)s2)cc1	> 100	> 100	> 100	> 100		
O=C(Cc1ccc2ccccc2c1)Nc1nnc(-c2ccc3c(c2)OCCO3)s1	> 100	67.9 (≈ 168 µM)	43.6 (≈ 108 µM)	> 100		
CCOc1ccc(CC(=O)Nc2nnc(-c3ccc4c(c3)OCCO4)s2)cc1OCC	> 100	> 100	> 100	> 100		
COc1cccc(CC(=O)Nc2nnc(-c3ccc4c(c3)OCCO4)s2)c1	> 100	> 100	> 100	> 100		
O=C(Cc1ccc(Br)cc1)Nc1nnc(-c2ccc3c(c2)OCCO3)s1	42.1 (≈ 97.5 µM)	> 100	> 100	51.2 (≈ 118 µM)	54.9	
O=C(Cc1ccccc1)Nc1nnc(-c2ccc3c(c2)OCCO3)s1	18.3 (≈ 51.7 µM)	27.4 (≈ 77.5 µM)	51.3 (≈ 145 µM)	49.9 (≈ 141 µM)	50.2	
Nc1ccc(C(=O)Nc2nnc(-c3ccc4c(c3)OCCO4)s2)cc1	> 100	> 100	41.2 (≈ 116 µM)	> 100		
O=C(CCc1ccccc1)Nc1nnc(-c2ccc3c(c2)OCCO3)s1	15.3 (≈ 41.7 µM)	14.2 (≈ 38.7 µM)	16.2 (≈ 44 µM)	32.5 (≈ 88.3 µM)	38	
O=C(Nc1nnc(-c2ccc3c(c2)OCCO3)s1)c1ccccn1	> 100	35.8 (≈ 105 µM)	> 100	> 100		
Cc1ccccc1C(=O)Nc1nnc(-c2ccc3c(c2)OCCO3)s1	> 100	> 100	> 100	> 100		
O=C(Nc1nnc(-c2ccc3c(c2)OCCO3)s1)c1ccccc1	34.8 (≈ 102 µM)	46.1 (≈ 136 µM)	67.6 (≈ 199 µM)	> 100	62	
O=C(/C=C/c1ccccc1)Nc1nnc(-c2ccc3c(c2)OCCO3)s1	10.3 (≈ 28.1 µM)	45.4 (≈ 124 µM)	60.2 (≈ 165 µM)	> 100	29.5	inhibition (Focal adhesion kinase 1 [4]): Active; Activity (HepG2 [5]): 11%; Activity (HepG2 [6]): Active; Activity (HepG2 [7]): 27.21%; Activity (HepG2 [8]): 32.8%; Activity (HepG2 [9]): 23.25%; Activity (HepG2 [10]): 13.17%; Activity (HepG2 [11]): 0.8%; viability at 2 µM (HepG2 [12]): 50.8%; Activity (HepG2 [13]): 8%; viability at 4 µM (HepG2 [14]): 39.5%; Activity (HepG2 [15]): 18%; Activity (HepG2 [16]): 24.49%; Activity (HepG2 [17]): 4.03%; Activity (HepG2 [18]): Active; viability at 0.5 µM (HepG2 [19]): 58.3%; Activity (HepG2 [20]): 3.49%; Activity (HepG2 [21]): 26.23%; viability at 1 µM (HepG2 [22]): 58.9%
O=C(Cc1cccc(Cl)c1)Nc1nnc(-c2ccc3c(c2)OCCO3)s1	18.4 (≈ 47.5 µM)	> 100	47.6 (≈ 123 µM)	34.9 (≈ 89.9 µM)	46.7	
O=c1[nH]cc(F)c(=O)[nH]1 [FLUOROURACIL]	23.3 (≈ 179 µM)	17.4 (≈ 134 µM)	28.5 (≈ 219 µM)	31 (≈ 238 µM)		
O=C(Cc1ccc(Cl)cc1)Nc1nnc(-c2ccc3c(c2)OCCO3)s1	13.8 (≈ 35.5 µM)	> 100	40.7 (≈ 105 µM)	26.8 (≈ 69 µM)	31.3	
O=C(Cc1cccc(Br)c1)Nc1nnc(-c2ccc3c(c2)OCCO3)s1	45.8 (≈ 106 µM)	> 100	> 100	54.2 (≈ 125 µM)	60.5	
O=C(Cc1ccc(F)cc1)Nc1nnc(-c2ccc3c(c2)OCCO3)s1	23.8 (≈ 64 µM)	> 100	> 100	> 100	51.2	
